Two compounds from US20180311353A1, “TRIPLET-TRIPLET ANNIHILATION-BASED UPCONVERSION” (Children's Medical Center Corporation, priority 2015, published 2018) can be followed below.

For data set [1] the following is noted: 530 nm LED, 150 mW cm^−2. The source says:
This example illustrates cell binding triggered by TTA-UC. Photo-triggered binding of NPTTA-c[R]GDfK to cells by flow cytometry and confocal microscopy, was studied with micelles in which a hydrophilic dye, Lissamine™ rhodamine B (LRB), was covalently bound to the PLA-PEG copolymer (forming PLA-PEG-LRB; FIG. 16).

Data set [2] in a line: Photocleavage of c[R]GDfK molecule (400 nm LED, HPLC). It counts as physicochemical. Conditions: PBS. Here is the method: Construction of photo-targeted polymeric micelles. […] The identity of the peaks was further confirmed by mass spectrometry. Approximately 86% of cleavage occurred within 30 s of irradiation at 50 mW cm^−2 (FIG. 2C). At an irradiance as low as 2.3 mW cm^−2, ˜42% of c[R]GDfK was cleaved after 2 min of irradiation.
FIG. 2A. Photocleavage of c[R]GDfK. […] FIG. 2B. UV-visible absorption and fluorescence emission spectra of c[R]GDfK in PBS (pH 7.4). The excitation wavelength for the fluorescence spectrum was 385 nm. FIG. 2C. Photocleavage rate of c[R]GDfK in PBS, as determined by HPLC (detected at 390 nm), after continuous irradiation with 400 nm LED light at 2.3 mW cm^−2 and 50 mW cm^−2 (data are mean+/−SD; n=4). a.u.=arbitrary units. […]
Photocleavage of c[R]GDfK molecule. A disposable macro fluorescence cuvette containing 400 microliters of c[R]GDfK PBS solution (50 microgram/mL) was irradiated under an 11-mm LED (400 nm) collimator with a Multi-channel Universal LED controller (Mightex Systems, CA, USA). […] The LED irradiance was measured with a PM100USB Power and Energy Meter (ThorLabs, NJ, USA). At each irradiation time point, 50 microliters of the irradiated solution was analyzed by reverse-phase high-performance liquid chromatography (RP-HPLC) with an Agilent 1260 Infinity LC system and a Poroshell 120 EC-C18 column (4.6×100 mm) (Agilent Technologies, CA, USA). […]

The nature of data set [3]: Photocleavage of DEACM from NPTTA-c[R]GDfK (530 nm LED, centrifugal filtrate). It counts as physicochemical. Conditions: HPLC of filtrate. Here is the method: Photocleavage of DEACM from NPTTA-c[R]GDfK. One milliliter of NPTTA-c[R]GDfK solution (1 mg mL^−1) was put in a quartz cuvette and irradiated with LED light (530 nm, 150 mW cm^−2). At each irradiation time, the solution was put in an Amicon® Ultra centrifugal filter (50,000 Da cut-off) and centrifuged at 4000 rmp for 15 min. […]
Photocleavage of DEACM from NPTTA-c[R]GDfK. […] At each irradiation time, the solution was transferred into an Amicon® Ultra centrifugal filter (MWCO: 50,000 Da) and centrifuged at 4000 rmp for 15 min. […]

Turning to `CCN(CC)c1ccc2c(-c3ccc(S(=O)(=O)NCCN)cc3S(=O)(=O)O)c3ccc(=[N+](CC)CC)cc-3oc2c1.O=C(O)C(F)(F)F` [LRB, Lissamine™ rhodamine B ethylenediamine], the “photostable under irradiation, time” value in data set [1] is listed as “at least 10 min”.

On to c[R]GDfK, for which, in data set [2] (2.3 mW cm^−2, after 2 min), the “c[R]GDfK cleaved” value was approximately 42%. Also, the “cleavage of c[R]GDfK” value in data set [2] (50 mW cm^−2, within 30 s, 50 microgram/mL) is recorded as “Approximately 86%”. For the same compound, in data set [3], the “photocleavage of DEACM on 530 nm irradiation” value is “did not cleave DEACM from c[R]GDfK”.
